Assay results reported in patent publication US20240245696A1, “INHIBITORS OF DNA PK AND USES THEREOF” (BioVentures, LLC, priority 2017, published 2024).
Entries after “also recorded” stand apart in the source; their conditions may differ.

Columns and labels:
NFAT = assay: Immunofluorescence of NFAT nuclear translocation in Jurkat cells; type: cell-based, human; parameters: dose or concentration left out as unconfirmed; conditions: Jurkat activated with PMA+PHA, inhibitor
Method: Immunofluorescence of NFAT: Jurkat cells were plated in poly-lysine treated 35 mm dish with glass-bottom (BioTek) overnight. The cells were fixed with 4% formaldehyde and permeabilized with permeabilization solution (0.2% TRITON X-100+OVA solution (0.1 mg/mL), 0.01% sodium azide). NFAT was probed with anti-NFAT2 (ab2796, Abcam) in permeabilization solution overnight at 4° C., and then washed with PBS. Fluorescein (FITC)-conjugated AffiniPure Donkey Anti-Mouse IgG (715-095-151, Jackson ImmunoResearch) was applied to the cells for 1 hour at room temperature. The cells were washed with PBS and ProLong Antifade reagent with DAPI (Molecular Probes) was applied. All samples were analyzed on an Olympus Fluoview FV1000 laser confocal microscope. Images from all microscopy experiments were processed using the FV10-ASW 3.1 Viewer (Olympus).

IL-2 = assay: qPCR of IL-2 expression in stimulated Jurkat cells; type: cell-based, human; conditions: PHA+PMA stimulation
Method: Evaluation of PD-1 and IL-2 expression: The effect of NU7441 on the expression of PD-1, a protein with immunosuppressant function, and IL-2 was examined in Jurkat cells following stimulation with PHA+PMA and treatment with the inhibitor NU7441. qPCR analysis was performed using primers specific for PD1 and IL-2 sequences.

Cabin1 = assay: Western blot of Cabin1 expression in activated Jurkat cells; type: cell-based, human; conditions: Jurkat activated with PMA+PHA
Method: (§1) Cell lysis and nuclear extract: Cells were washed with cold PBS twice and centrifuged at 5000 rpm for 5 minutes. For the nuclear extract, pellets were suspended with 800 μL of 10 mN HEPES lysis buffer (10 mM HEPES at pH 7.9, 10 mM KCl, 1 mM DTT, and 1× protease and phosphatase inhibitor) and incubated on ice for 15 minutes. 50 μL of NP-40 (10% in water) was added and the pellets were mixed for 10 seconds. Lysates were centrifuged for 5 minutes at 4° C. at 13,000 rpm. The supernatant solution which is containing the cytosolic fraction was discarded and the pellets were resuspended in 20 mM HEPES lysis buffer (20 mM HEPES at pH 7.9, 0.4 M NaCl, 1 mM DTT, and 1× protease, and phosphatase inhibitor) and incubated on ice for 15 minutes with intermittent mixing. Lysates were centrifuged for 10 minutes at 4° C. at 13,000 rpm. The supernatant containing nuclear extract was stored at -20° C. until they were used for the Western blot analysis. For total cell lysates, cell pellets were resuspended with 100 μL of RIPA buffer (150 mM NaCl, 1% Triton X-100, 0.1% SDS, and 50 mM Tris at pH 8.0) and incubated on ice for 10 minutes. The lysates were centrifuged for 10 minutes at 4° C. at 13,000 rpm and the supernatant solutions were stored at -20° C. until they were used for the Western blot analysis. Western blot analysis: Nuclear extract lysates were separated on 3-8% Tris-Acetate gels (Invitrogen). […]

calcineurin = assay: Calcineurin Cellular Activity Assay in Jurkat cell lysates; type: cell-based, human; conditions: Jurkat activated with PMA+PHA, NU7441 2.5 µM
Source text: (§2) Detection of calcineurin and mTOR activities: Calcineurin phosphatase activity was detected by Calcineurin Cellular Activity Assay Kit from Millipore (Billerica, MA) and mTOR signaling was detected by Calcium Detection Kit from Abcam (Cambridge, MA). The manufacturer's protocols were followed. Briefly, Jurkat cells (2 million cells/mL) were lysed using lysis buffer. For calcineurin activity, the cell lysates were desalted by gel filtration to remove free phosphates before the assay and were subjected to calcineurin activity assay. The absorbance of each sample was read at 620 nm using the plate reader. For mTOR ELISA assay, the cell lysates were added to each well and antibody against phosphorylated mTOR at serine 2448 was used to detect the activity of mTOR signaling. The absorbance of each sample was read at 450 nm using the plate reader.

Th17 T cells = assay: qPCR on T cell markers, Th17 differentiation of naïve CD4+ T cells; type: cell-based; conditions: naïve CD4+ T cells from mouse spleens
Method: qPCR on T cell markers: Naïve CD4+ T cells were isolated by standard methods from the spleens of Balbc mice. T cells were grown in culture and treated with cytokines specific for differentiate into Th1 and Th17 subtypes. Additionally, T cells were cultured with NU7441 and FK506. qPCR was performed looking at the following markers: Batf3, RORyt, IL17, IL22, TGFBeta, Lymphotoxin, T-Bet.

CHK2 = assay: Western blot of phosphorylated CHK2 (Thr68) in activated Jurkat cells; type: cell-based, human; conditions: Jurkat activated with PMA+PHA
Method: as §1

mTOR = mTOR (phospho-ser2448) ELISA and western blot in activated Jurkat cells; type: cell-based, human
Method: Western blot analysis: Nuclear extract lysates were separated on 3-8% Tris-Acetate gels (Invitrogen). Total cell lysates were separated on 4-20% Tris-Glycine gels (Bio-Rad). Gels were transferred onto PVDF membrane (Millipore) for 2 hours in the cold room at 100V. Immunoblotting was performed using following antibodies: pDNA-PKcs at S2056 (ab18192, Abcam), DNAPK (ab53701, Abcam), pNFAT2 at S237 (ab183023, Abcam), CABIN1 (12660S, Cell signaling), GAPDH (MAB374, Millipore), and Lamin B1 (ab16048, Abcam). HRP-conjugated secondary antibody anti-Rabbit and anti-Mouse (7074S and 7076S, Cell Signaling) was used.
as §2, with “For mTOR ELISA assay, the cell lysates were added to each well and antibody against phosphorylated mTOR at serine 2448 was used to detect the activity of mTOR signaling.” left out

## O=c1cc(N2CCOCC2)oc2c(-c3cccc4c3sc3ccccc34)cccc12 [NU7441]
NFAT
  nuclear localization of NFAT: nuclear localization was prevented; also recorded: blocked translocation of NFAT to the nucleus
IL-2
  IL-2 expression: reduced
Cabin1
  Cabin1 expression: elevated Cabin1 expression
Cabin1; listed as NU744
  Cabin1 expression: increase in Cabin1 expression
calcineurin
  calcineurin phosphatase activity: significantly inhibited; also recorded: significant reduction in calcineurin activity
Th17 T cells
  Th17 differentiation (markers Batf3, RoRyt, IL22, TGFBeta, IL17): suppressing a Th17 environment
CHK2
  CHK2 phosphorylation at Thr68: reduced CHK2 phosphorylation
CHK2; listed as NU744
  CHK2 phosphorylation at Thr68: reduced
mTOR
  mTOR activation (phosphorylated ser2448): did not alter mTOR activation; also recorded: does not alter mTOR activation
